According to PubChem BioAssay (NCI):
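Compound exposure: 48 hours, 5 concentrations, 96-well plates. TGI denotes the concentration required for complete inhibition of growth.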

Tests used:
Test in all cases: inhibition of tumour cell growth, NCI panel, 48 h
IGROV1 ovarian = tested on: IGROV1 ovarian
UO-31 renal = tested on: UO-31 renal
RXF 393 renal = tested on: RXF 393 renal
HCC-2998 colon = tested on: HCC-2998 colon
PC-3 prostate = tested on: PC-3 prostate
CAKI-1 renal = tested on: CAKI-1 renal
NCI-H226 lung = tested on: NCI-H226 lung
OVCAR-3 ovarian = tested on: OVCAR-3 ovarian
SW-620 colon = tested on: SW-620 colon
OVCAR-8 ovarian = tested on: OVCAR-8 ovarian

| Compound | TGI (IGROV1 ovarian) [µM] | TGI (UO-31 renal) [µM] | TGI (RXF 393 renal) [µM] | TGI (HCC-2998 colon) [µM] | TGI (PC-3 prostate) [µM] | TGI (CAKI-1 renal) [µM] | TGI (NCI-H226 lung) [µM] | TGI (OVCAR-3 ovarian) [µM] | TGI (SW-620 colon) [µM] | TGI (OVCAR-8 ovarian) [µM] |
| --- | --- | --- | --- | --- | --- | --- | --- | --- | --- | --- |
| O=C(NCc1ccc(Cl)c(Cl)c1)c1nc2ccccc2nc1NCc1ccc(Cl)c(Cl)c1 | > 100 | > 100 | > 100 | > 100 | > 100 | > 100 | > 100 | > 100 | > 100 | > 100 |
| CCOC(=O)c1c(SCCN(CC)CC)n(-c2ccccc2)c(=S)n(-c2ccccc2)c1=O | 13.2 | 3.12 | 3.28 | 3.46 | 4.1 | 4.68 | 41.1 | 3.36 | > 24.2 | 7.19 |
| CC1=C(C(=O)OC(C)(C)C)C(c2ccc([N+](=O)[O-])cc2)C(C(=O)OC(C)(C)C)=C(C)N1 | 32.2 | 33.5 | 36.2 | 27.2 | 45.1 | 56.4 | 39.1 | 36.7 | 54 | 42.3 |
| COc1ccc(-c2cc(=O)c3cc(OC)c(OC)cc3[nH]2)cc1OC | > 100 | > 100 | > 100 | > 100 | > 100 | > 100 | > 100 | > 100 | > 100 | > 100 |
| Cc1nnc(N)s/c1=N/O | > 100 | > 100 | > 100 | > 100 | > 100 | > 100 | > 100 | > 100 | > 100 | > 100 |
| CC(=O)OC/C=C/Cn1nc(Br)c(=O)[nH]c1=O | > 100 | > 100 | > 100 | > 100 | > 100 | > 100 | > 100 | > 100 | > 100 | > 100 |
| Clc1cc2ncn(C3CCCO3)c2cc1Cl (stereo not given) | 69.5 | 53.6 | > 100 | > 100 | > 100 | > 100 | > 100 | > 100 | > 100 | > 100 |
| COc1c(-c2nc3nc(N4CCN(C)CC4)ccc3[nH]2)cc(OC)c2c1nc(CCl)n2C | 36.8 | 32.8 | 33.8 | 31.2 | 28.2 | 33.2 | 66.1 | 81.5 | 64.3 | 50.5 |
| CC(=O)Oc1cc(OC(C)=O)c2c(c1C)CC[C@@H]1[C@@H]2CC[C@]2(C)[C@@H](OC(C)=O)CC[C@@H]12 | 34.4 | 31.4 | 27.7 | 36.6 | 29 | 52.1 | 34.2 | 31.7 | 32.9 | 42.4 |
| CC(C)(C)OC(=O)NCCCCC1NC(=O)[C@@H]2Cc3c([nH]c4ccccc34)C(c3ccccc3)N2C1=O (stereo not given in full) | > 100 | > 100 | 42.2 | 40.3 | > 100 | > 100 | > 100 | 49.2 | > 100 | > 100 |
| O=C(c1ccccc1)n1c2ccc(Br)cc2c2nc3ccccc3nc21 | > 100 | > 100 | > 100 | > 100 | > 100 | > 100 | > 100 | > 100 | > 100 | > 100 |
| CCOP(=O)(OCC)/C(C#N)=C(\C)c1ccco1 | > 10 | > 10 | > 10 | > 10 | > 10 | > 10 | > 10 | > 10 | > 10 | > 10 |
| N#Cc1c2c(c(Nc3ccc(Cl)cc3)n3c1nc1ccccc13)CCCC2 | > 100 | > 100 | > 85.1 | > 100 | > 100 | > 100 | > 100 | > 100 | > 100 | > 100 |
| CCOC(=O)c1sc2nc(SC)nc3c2c1NCN3c1ccccc1Cl | > 100 | > 100 | 73 | > 100 | > 100 | > 100 | > 100 | > 100 | > 100 | > 100 |
| O=C1Cc2c(-c3ccccc3)cc(-c3ccc(Cl)cc3)nc2-c2ccccc2N1 | 35.9 | 7.31 | 17.3 | 33.4 | > 57.7 | 16.2 | 22 | 22.8 | > 47.6 | 9.09 |
| CNC(=O)N(C)C(=O)c1ccccc1C(=O)N(C)C(=O)NC | > 10 | > 10 | > 10 | > 10 | > 10 | > 10 | > 10 | > 10 | > 10 | > 10 |
| CC(=O)CC(=O)N1CCOC1=O | > 10 | > 10 | > 10 | > 10 | > 10 | > 10 | > 10 | > 10 | > 10 | > 10 |
| CCOC(=O)c1ccc(-c2cccs2)[nH]1 | > 100 | > 89 | > 100 | > 100 | > 100 | > 100 | > 100 | > 100 | > 100 | > 100 |
| Cn1c(=O)c2c(n(C)c1=O)n1c(=O)c3ccccc3nc1n2C | > 100 | > 100 | > 100 | > 100 | > 100 | > 100 | 73.2 | > 100 | > 100 | > 100 |
| Nc1nc2c(ccc3ccccc32)[nH]1 | > 10 | > 10 | > 10 | > 10 | > 10 | > 10 | > 10 | > 10 | > 10 | > 10 |
| CCCCSC1=N/C(=C\c2ccccc2O)C(Cl)=N1 | > 100 | > 100 | > 100 | > 100 | > 100 | > 100 | > 100 | > 100 | > 100 | > 100 |
| O=P1(C(O)c2ccccc2)N(Cc2ccccc2)[C@@H]2CCCC[C@H]2N1Cc1ccccc1 (stereo not given in full) | 49.9 | > 100 | > 100 | 50.4 | 89.1 | > 100 | 64.7 | 91.3 | > 100 | > 100 |
| Cc1ccc(C(=O)C2CC3(CCC2(O)c2ccc(C)cc2)CC(=O)Nc2ccccc2C3=O)cc1 (stereo not given) | > 100 | > 100 | > 100 | > 100 | > 100 | > 100 | > 100 | > 100 | > 100 | > 100 |
| CCc1n[nH]c(=O)n1-c1ccncc1 | > 100 | > 100 | > 100 | > 100 | > 100 | > 100 | > 100 | > 100 | > 100 | > 100 |
| C/C(=C\CNc1ncnc2c1ncn2CCC#N)CO | > 100 | > 100 | > 100 | > 100 | > 100 | > 100 | > 100 | > 100 | > 100 | > 100 |
| Nc1c(/C=C/c2cc3cc(C4=NCCN4)ccc3o2)[nH]c2cc(C3=NCCN3)ccc12 | > 100 | > 100 | > 100 | > 100 | > 100 | > 100 | > 100 | > 100 | > 100 | > 100 |
| CCCCC(C)(C/C=C/[C@@H]1[C@@H](C(O)CCCCCC(=O)OC)C(=O)C[C@H]1O[Si](C)(C)C(C)(C)C)O[Si](C)(C)C (stereo not given in full) | > 100 | > 100 | > 100 | > 100 | > 100 | 78.1 | > 100 | > 100 | > 100 | > 100 |
| COc1ccc2c(C=O)c3n(c(=O)c2c1OC)CCc1cc2c(cc1-3)OCO2 | > 100 | > 100 | 11.3 | 94.1 | > 100 | > 100 | > 100 | > 100 | > 100 | > 100 |
| FC(F)(Sc1nc2ccccc2[nH]1)c1nc2ccccc2o1 | > 100 | > 100 | > 100 | > 100 | > 100 | > 100 | > 100 | > 100 | > 100 | > 100 |
